The subject of this experiment is 843126-344-R-J1-PDC complex spheroid viability. Briefly: Anticancer human tumor 843126-344-R-J1-PDC patient-derived melanoma cell line growth inhibition [POLQ]. Conditions: for viability, T/C: stronger effect = lower value. How it is done:
Multicellular complex tumor spheroid response to Polymerase (POL) inhibitors (novobiocin, ART-558, RP6685) in combination with a variety of drugs and investigational agents in selected tumor cell lines
The POL inhibitors (novobiocin, ART-558, and RP6685) were evaluated both individually and in combination with standard of care and investigational anticancer small molecules within a complex spheroid model of solid tumors. . Complex spheroids include a stromal component modeled by human endothelial cells (HUVEC) and fibroblasts modeled by human mesenchymal stem cells (MSCs). The concentration ranges selected for each drug and investigational agent were based upon clinically achievable concentrations if the clinical Cmax of the agent was known.
Compounds. The drugs and investigational agents: novobiocin (NSC847541), ART-558 (NSC835418), RP-6685 (NSC848927), peposertib (NSC802822), ceralasertib (NSC780249), elimusertib (NSC800525), camonsertib (NSC841442), AZD-1390 (NSC803789), olaparib (NSC753686), talazoparib (NSC767125), rucaparib (NSC756644), sotorasib (NSC818433), MRTX-1133 (NSC836407), SN-38 (NSC673596), topotecan (NSC609699), epotoside (NSC141540), doxorubicin (NSC123127), gemcitabine (NSC613327), 5-fluorouracil (NSC19893), paclitaxel (NSC125973), vemurafenib (NSC761431), MSA-2 (NSC828583), SN-011 (NSC837082), adavosertib (NSC754352), prexasertib (NSC758257), carboplatin (NSC241240) and oxaliplatin (NSC266046), were obtained from the National Cancer Institute (NCI) Developmental Therapeutics Program Chemical Repository (21). The FDA-approved anticancer drug set is available from the Developmental Therapeutics Program at https://dtp.cancer.gov/organization/dscb/obtaining/. […] The stock solutions were prepared in dimethyl sulfoxide (DMSO, Sigma-Aldrich, St. Louis, MO, cat. D2650), except for the platinum compounds which were prepared in saline (Quality Biological, Gaithersburg, MD, cat. 114-055-101), at 800-fold the tested concentration and stored at -70 degrees C prior to their use. All drugs and investigational agents were tested over a range starting from a high concentration at or near the clinical Cmax and decreasing in half-log increments. If the clinical Cmax for an agent had not been determined, the highest concentration tested was 10 microM, except for SN-38, which was tested at a high concentration of 1 microM.
Cell Culture. All cells were maintained in an incubator at 37 degrees C and 5% CO2 with 95% humidity. The PDC lines were cultured according to standard operating procedures established by the NCI PDMR (https://pdmr.cancer.gov). Table 3 of the manuscript, lists the cell lines along with the number of the three cell types plated to form the mct-spheroids and media for tumor cell growth. After thawing, all PDC lines, except 997537-175-T-J1-PDC and 415267-285-R-J2-PDC, were cultured in Matrigel-coated flasks prepared with a working solution of 1X Ham's F-12 nutrient mix, without supplementation (Thermo Fisher Scientific, cat. 11765054), 100 U/mL penicillin-streptomycin (Thermo Fisher Scientific, cat. 15140122), and 2.5% Matrigel (Corning Inc., Corning, NY, cat. 354248) for the first three passages. The two PDC lines 997537-175-T-J1-PDC and 415267-285-R-J2-PDC were cultured on uncoated flasks. The 857933-349-R-J2-PDC line was cultured in 6C/Colon 1B media containing advanced DMEM/F-12 (Thermo Fisher Scientific, cat. 12634028), 10 mM HEPES (Thermo Fisher Scientific, cat. 15630080), 1X GlutaMAX supplement (Thermo Fisher Scientific, cat. 35050061), 0.1 mg/mL primocin (InvivoGen, San Diego, CA, cat. ant-pm-2), 10% defined fetal bovine serum, heat inactivated (HyClone Laboratories Inc., Logan, UT, cat. SH30070.03HI), 50% L-WRN conditioned media (ATCC, cat. CRL-3276), 1.25 mM N-Acetyl-L-cysteine (Sigma-Aldrich, cat. A9165), 10 mM nicotinamide (Sigma-Aldrich, cat. N0636), 1X B-27 supplement (Thermo Fisher Scientific, cat. 17504044), 1X N-2 supplement (Thermo Fisher Scientific, cat. […]

Setting [1] is: curve of first compound, second compound 0.0316 µM.
Where [2] appears, read: curve of first compound, second compound 0.1 µM.
The mark [3] stands for this setting: curve of first compound, second compound 0.316 µM.
Where [4] appears, read: curve of first compound, second compound 1 µM.
Setting [5] is: curve of first compound, second compound 3.16 µM.
[6] abbreviates: curve of first compound, second compound 10 µM.
[7] abbreviates: second compound 0.0316 µM, first compound 0.0316 µM.
Setting [8] is: second compound 0.0316 µM, first compound 0.1 µM.
Setting [9] is: second compound 0.0316 µM, first compound 0.316 µM.
[10] abbreviates: second compound 0.0316 µM, first compound 1 µM.
Setting [11] is: second compound 0.0316 µM, first compound 3.16 µM.
The mark [12] stands for this setting: second compound 0.0316 µM, first compound 10 µM.
Where [13] appears, read: second compound 0.1 µM, first compound 0.0316 µM.
The mark [14] stands for this setting: second compound 0.1 µM, first compound 0.1 µM.
Where [15] appears, read: second compound 0.1 µM, first compound 0.316 µM.
[16] abbreviates: second compound 0.1 µM, first compound 1 µM.
The mark [17] stands for this setting: second compound 0.1 µM, first compound 3.16 µM.
Where [18] appears, read: second compound 0.1 µM, first compound 10 µM.
Where [19] appears, read: second compound 0.316 µM, first compound 0.0316 µM.
[20] abbreviates: second compound 0.316 µM, first compound 0.1 µM.
[21] abbreviates: second compound 0.316 µM, first compound 0.316 µM.
[22] abbreviates: second compound 0.316 µM, first compound 1 µM.
[23] abbreviates: second compound 0.316 µM, first compound 3.16 µM.
The mark [24] stands for this setting: second compound 0.316 µM, first compound 10 µM.
Where [25] appears, read: second compound 1 µM, first compound 0.0316 µM.
Setting [26] is: second compound 1 µM, first compound 0.1 µM.
Setting [27] is: second compound 1 µM, first compound 0.316 µM.
The mark [28] stands for this setting: second compound 1 µM, first compound 1 µM.
The mark [29] stands for this setting: second compound 1 µM, first compound 3.16 µM.
Setting [30] is: second compound 1 µM, first compound 10 µM.
Setting [31] is: second compound 3.16 µM, first compound 0.0316 µM.
Where [32] appears, read: second compound 3.16 µM, first compound 0.1 µM.
Setting [33] is: second compound 3.16 µM, first compound 0.316 µM.
The mark [34] stands for this setting: second compound 3.16 µM, first compound 1 µM.
[35] abbreviates: second compound 3.16 µM, first compound 3.16 µM.
Setting [36] is: second compound 3.16 µM, first compound 10 µM.
[37] abbreviates: second compound 10 µM, first compound 0.0316 µM.
Where [38] appears, read: second compound 10 µM, first compound 0.1 µM.
Where [39] appears, read: second compound 10 µM, first compound 0.316 µM.
Where [40] appears, read: second compound 10 µM, first compound 1 µM.
Where [41] appears, read: second compound 10 µM, first compound 3.16 µM.
Setting [42] is: second compound 10 µM, first compound 10 µM.

Broadly, the viability, T/C is the ratio of treated to control. Broadly, the IC50 is the concentration needed to halve the response being measured.

Where “and” joins values, the source holds several entries; their conditions need not be identical. Equal entries are not always repeated. Where only a bound is given, the exact number is not on record here.
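Throughout, for viability, T/C: spheroids exposed to drugs for seven days before readout.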

On to `CC1COCCN1c1cc(-c2ccnn2C)c2ccnc(-c3ccn[nH]3)c2n1` (centres undefined), for which the viability, T/C was 93.7% and 70.9% and 85.8% (compound 0.0316 µM); 87% and 64.9% and 70.9% (compound 0.1 µM); 85.9% and 57.1% and 61.9% (compound 0.316 µM); 44.4% and 47.7% and 48.8% (compound 1 µM); 38.5% and 40.5% and 38.8% (compound 3.16 µM); 33.1% and 23.9% and 32.7% (compound 10 µM). Moreover, the IC50 (curve of compound) was 858 nM and 836 nM and 903 nM.
As to `CC(=O)O[C@H]1C(=O)[C@@]2(C)[C@H]([C@H](OC(=O)c3ccccc3)[C@]3(O)C[C@H](OC(=O)[C@H](O)[C@@H](NC(=O)c4ccccc4)c4ccccc4)C(C)=C1C3(C)C)[C@]1(OC(C)=O)CO[C@@H]1C[C@@H]2O`, the viability, T/C is, setting by setting: (compound 0.00949 µM) 65.3% and 60.5%; (compound 0.03 µM) 54.6% and 53.3%; (compound 0.0949 µM) 64.2% and 54.8%; (compound 0.3 µM) 75.2% and 57%; (compound 0.949 µM) 74.7% and 55.3%; (compound 3 µM) 76% and 66.8%. Moreover, the concentration for half-maximal inhibition (IC50) (curve of compound) was over 3000 nM.
Turning to `CC1COCCN1c1cc(C2(O)CC3CCC(C2)O3)c2cnn(-c3ccn[nH]3)c2n1` (centres undefined) + COC1C(OC(N)=O)C(O)C(Oc2ccc3c(O)c(NC(=O)c4ccc(O)c(CC=C(C)C)c4)c(=O)oc3c2C)OC1(C)C, the half-maximal inhibitory concentration (IC50) under setting [1] was 387 nM; the IC50 under setting [2] is 485 nM; the IC50 under setting [3] was determined as 405 nM; the IC50 under setting [4] was 391 nM; the IC50 under setting [5] came to 399 nM; the concentration for half-maximal inhibition (IC50) under setting [6] is 493 nM. For the same compound, the viability, T/C by setting is: under setting [7], 83.6%; under setting [8], 66.6%; under setting [9], 53.6%; under setting [10], 38.9%; under setting [11], 22.7%; under setting [12], 14.5%. Besides, the viability, T/C is 78.8% under setting [13]; 78.9% under setting [14]; 53.2% under setting [15]; 38.8% under setting [16]; 27.2% under setting [17]; 18.3% under setting [18]. Besides, the viability, T/C reads like this: under setting [19], 92.1%; under setting [20], 64.9%; under setting [21], 51.5%; under setting [22], 44.5%; under setting [23], 22.5%; under setting [24], 15.1%. The viability, T/C under setting [25] is 73.2%; the viability, T/C under setting [26] is 68.3%; the viability, T/C under setting [27] is 51.4%; the viability, T/C under setting [28] is 36.3%; the viability, T/C under setting [29] was 27.4%; the viability, T/C under setting [30] was 14.7%. For the same compound, the viability, T/C runs as follows: under setting [31], 88.7%; under setting [32], 55.5%; under setting [33], 53.2%; under setting [34], 46.8%; under setting [35], 26.1%; under setting [36], 15.6%. The viability, T/C was 72.5% under setting [37]; 66.9% under setting [38]; 54.7% under setting [39]; 41.6% under setting [40]; 25.6% under setting [41]; 11.7% under setting [42].
Turning to `CC1COCCN1c1cc(C2(S(C)(=N)=O)CC2)nc(-c2ccnc3[nH]ccc23)n1` (centres undefined), the viability, T/C by setting is: (compound 0.0316 µM) 87.2% and 79.8% and 109%; (compound 0.1 µM) 93.7% and 82.8% and 102%; (compound 0.316 µM) 97.2% and 83.1% and 95%; (compound 1 µM) 81.4% and 97.7% and 89.5%; (compound 3.16 µM) 73.4% and 81.9% and 68%; (compound 10 µM) 49.9% and 55.9% and 55.2%. Also, the IC50 (curve of compound) was over 10000 nM.
Turning to `COc1cc2cc(C(=O)CCC(=O)O)sc2cc1OC` + COC1C(OC(N)=O)C(O)C(Oc2ccc3c(O)c(NC(=O)c4ccc(O)c(CC=C(C)C)c4)c(=O)oc3c2C)OC1(C)C, the IC50 was over 10000 nM under setting [1]; over 10000 nM under setting [2]; over 10000 nM under setting [3]; over 10000 nM under setting [4]; over 10000 nM under setting [5]; over 10000 nM under setting [6]. The viability, T/C was 93.2% under setting [7]; 82.8% under setting [8]; 99.1% under setting [9]; 89.6% under setting [10]; 94.1% under setting [11]; 87.2% under setting [12]. The viability, T/C is 97.5% under setting [13]; 112% under setting [14]; 103% under setting [15]; 91% under setting [16]; 108% under setting [17]; 94.4% under setting [18]. Besides, the viability, T/C is, setting by setting: under setting [19], 91.8%; under setting [20], 104%; under setting [21], 121%; under setting [22], 117%; under setting [23], 89%; under setting [24], 84.4%. In addition, the viability, T/C under setting [25] is 96.1%; the viability, T/C under setting [26] is 92.7%; the viability, T/C under setting [27] is 87.3%; the viability, T/C under setting [28] was 85.6%; the viability, T/C under setting [29] was 96%; the viability, T/C under setting [30] is 87.2%. Moreover, the viability, T/C was 97.3% under setting [31]; 93.5% under setting [32]; 81.4% under setting [33]; 108% under setting [34]; 97.7% under setting [35]; 109% under setting [36]. In addition, the viability, T/C is, setting by setting: under setting [37], 98.8%; under setting [38], 92.7%; under setting [39], 97.8%; under setting [40], 110%; under setting [41], 107%; under setting [42], 90.9%.
For the compound `COC1C(OC(N)=O)C(O)C(Oc2ccc3c(O)c(NC(=O)c4ccc(O)c(CC=C(C)C)c4)c(=O)oc3c2C)OC1(C)C` (centres undefined), the viability, T/C (compound 1 µM) was 92% [middle of 13 runs]. Further, for the setting “compound alone, run of 01/08/2024”, the IC50 is over 10000 nM.
In the case of `CC[C@@]1(O)C(=O)OCc2c1cc1n(c2=O)Cc2cc3c(CN(C)C)c(O)ccc3nc2-1`, the viability, T/C reads like this: (compound 0.000316 µM) 84.4% and 108% and 96.4%; (compound 0.001 µM) 99.5% and 88.4% and 89.3%; (compound 0.00316 µM) 92.7% and 105% and 96.4%; (compound 0.01 µM) 88.6% and 93.8% and 85.1%; (compound 0.0316 µM) 73% and 63.1% and 67.9%; (compound 0.1 µM) 51.1% and 55.8% and 48.8%. Also, the IC50 (curve of compound) was > 100 nM and 93.3 nM.

Source of the values: PubChem BioAssay AID1963837 (Molecular Pharmacology Branch, DTP, NCI, 2024).
